Values joined by “and” are separate entries in the source; they are usually repeats but may differ in a detail not shown here. Identical values can stand only once.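 Each compound was tested at five concentrations against cells in 96-well plates for 48 hours. Abbreviation: GI50, concentration required for 50% inhibition of growth. Definition used: TGI = concentration required for complete inhibition of growth.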
Legend:
Experiment in all cases: NCI tumour cell line growth inhibition, 48 h
ACHN renal = tested on: ACHN renal
KM12 colon = tested on: KM12 colon
MCF7 breast = tested on: MCF7 breast
MDA-MB-435 = tested on: MDA-MB-435
PC-3 prostate = tested on: PC-3 prostate
SF-268 CNS = tested on: SF-268 CNS
SK-MEL-2 melanoma = tested on: SK-MEL-2 melanoma
SN12C renal = tested on: SN12C renal
SR leukemia = tested on: SR leukemia
CCRF-CEM leukemia = tested on: CCRF-CEM leukemia

Row | Compound | TGI (ACHN renal) | TGI (KM12 colon) | TGI (MCF7 breast) | TGI (MDA-MB-435) | TGI (PC-3 prostate) | TGI (SF-268 CNS) | TGI (SK-MEL-2 melanoma) | TGI (SN12C renal) | TGI (SR leukemia) | GI50 (ACHN renal) | GI50 (CCRF-CEM leukemia) | TGI (CCRF-CEM leukemia) | GI50 (KM12 colon) | GI50 (MCF7 breast) | GI50 (MDA-MB-435) | GI50 (PC-3 prostate) | GI50 (SF-268 CNS) | GI50 (SK-MEL-2 melanoma) | GI50 (SN12C renal) | GI50 (SR leukemia)
1 | CC(=O)/C(=N\N=C(N)N)c1ccccc1 | > 100 µM | > 100 µM | > 100 µM | > 100 µM | > 100 µM | > 100 µM | > 100 µM | > 100 µM | > 100 µM |  |  |  |  |  |  |  |  |  |  | 
2 | C/C(=N\NC(=S)N1CCCC1)c1ccccn1 | 7.53 µM | 15.2 µM | 7.55 µM | 21.8 µM | 16.7 µM | 12.7 µM | 14.4 µM | 11.8 µM | > 49.9 µM | < 0.01 µM | < 0.01 µM | 23.1 µM | < 0.01 µM | < 0.01 µM | 0.0299 µM | < 0.01 µM | 0.0261 µM | 0.242 µM | 0.0132 µM | < 0.01 µM
3 | Cc1cc(C)nc(NC(=O)COc2ccc(Cl)cc2)c1 | > 100 µM | > 100 µM | > 100 µM | > 100 µM | > 100 µM | > 100 µM | > 100 µM | > 100 µM | > 100 µM |  |  |  |  |  |  |  |  |  |  | 
4 | COC(=O)N[C@@H](C)CNc1nccc(-c2cn(C(C)C)nc2-c2cc(Cl)cc(NS(C)(=O)=O)c2F)n1 | > 100 µM | > 100 µM | > 100 µM | > 100 µM | > 100 µM | > 100 µM |  | > 100 µM | > 84.7 µM | 1.03 µM | 38.2 µM | > 100 µM | 70.1 µM | 98.5 µM | < 0.01 µM | > 100 µM | > 100 µM |  | > 100 µM | 25.6 µM
5 | Cn1cc(-c2csc(-c3ccc(Cl)cc3)n2)c2cccnc21 | 29.2 µM | 27.6 µM | 29.8 µM | 33.6 µM | 34.2 µM | 34 µM | 42.5 µM | 32.5 µM | 59.6 µM | 14.1 µM | 18.4 µM | 51.9 µM | 13 µM | 11.9 µM | 12.8 µM | 11.4 µM | 15.4 µM | 17.4 µM | 14.8 µM | 13.3 µM
6 | CCS(=O)(=O)c1cccc(-c2cc(C(=O)NC3CCN(C)CC3)c(C)c3[nH]c4ncc(C)cc4c23)c1 | > 10 µM and 10.6 µM | 1.51 µM and 1.86 µM | 4.27 µM and 5.96 µM | > 10 µM and 4.54 µM | 5.85 µM and 4.71 µM | 2.19 µM and 1.1 µM | 3.07 µM and 3.38 µM | 3.88 µM and 11.3 µM | 2.14 µM and 1.58 µM | 9.87 µM and 2.64 µM | 0.101 µM and 0.0822 µM | > 10 µM and 38.1 µM | 0.0954 µM and 0.0478 µM | 0.105 µM and 0.0631 µM | 0.722 µM and 0.304 µM | 0.374 µM and 0.104 µM | 0.332 µM and 0.245 µM | 0.694 µM and 0.673 µM | 0.283 µM and 0.272 µM | 0.0682 µM and < 0.0246 µM
7 | COc1ccc(N=c2nc3sc4cc(Cl)ccc4n3c(N)c2C#N)cc1 | > 100 µM | 6.89 µM | 21.5 µM | > 100 µM | > 100 µM | > 100 µM | 34.7 µM | > 100 µM | > 84.8 µM | 8.66 µM | 11 µM | > 100 µM | 2.47 µM | 1.92 µM | 3.98 µM | 15.4 µM | 4.29 µM | 2.8 µM | 15.3 µM | 8.49 µM
8 | C[C@]12CCC3c4ccc(O)cc4CCC3C1CC[C@@H]2NC(=O)/C=C/c1ccc(O)c(O)c1 (some centres not stated) | 25.1 µM | > 100 µM | 49.1 µM | 39.1 µM | 40.5 µM | 45.3 µM | 51.3 µM | 34.2 µM | 42 µM | 12.4 µM | 3.2 µM | 30 µM | 34.2 µM | 16.1 µM | 13.6 µM | 3.94 µM | 11.2 µM | 20.6 µM | 13.4 µM | 7.26 µM
9 | O=S1(=O)CCC2=CC(C(F)(F)F)=CC(C(F)(F)F)=CN21 | 1.11 µM | 3.54 µM |  | 4.77 µM | 5.91 µM | 4.68 µM | 4.1 µM | 3.38 µM | 1.82 µM |  |  | 2.48 µM |  |  |  |  |  |  |  | 
10 | Cc1nc(C(=O)OCc2ccccc2)cc(OCc2ccccc2)c1C | 60.2 µM | > 87.6 µM | 43.2 µM | > 54.6 µM | > 69.8 µM | 41.6 µM | > 84.5 µM | 35.4 µM | 28.6 µM | 20.9 µM | 20.5 µM | 62.1 µM | 29 µM | 18.3 µM | 18.5 µM | 21 µM | 17.5 µM | 26.4 µM | 17.5 µM | 
11 | O=C(O)C(Cc1ccccc1)N1C(=O)/C(=C/C(Cl)=C/c2ccc([N+](=O)[O-])cc2)SC1=S (configuration not stated) | 3.3 µM | 4.35 µM | 10.7 µM | 6 µM | 7.98 µM |  | 4.5 µM |  | > 100 µM | 1.8 µM | 2.92 µM | > 100 µM | 2.06 µM | 2.38 µM | 2.27 µM | 2.53 µM |  | 1.87 µM |  | 2.45 µM
12 | COc1ccc(C(=O)Cn2c(C(=O)c3ccc(Cl)cc3)nc(-c3ccccc3)c2-c2ccccc2)cc1 | > 100 µM | > 100 µM | > 100 µM | > 100 µM | > 100 µM | > 100 µM | > 100 µM | > 100 µM | > 100 µM | 34.3 µM |  |  | > 100 µM | > 100 µM | > 100 µM | > 100 µM | > 100 µM | > 100 µM | > 100 µM | > 100 µM
13 | CSC(=S)NCc1cn(C)c2ccccc12 | > 100 µM | > 100 µM | 90.9 µM | > 100 µM | > 100 µM | 68 µM | > 100 µM | 80.8 µM |  | 21.9 µM | 24.4 µM | > 100 µM | 33.1 µM | 24.3 µM | 27.8 µM | 33 µM | 23.5 µM | 34.2 µM | 26.9 µM | 
14 | N#C/C(=C/C=C/c1cccc(Cl)c1)S(=O)c1ccccc1 (configuration not stated) | 1.29 µM | 1.38 µM |  | 1.69 µM | 0.867 µM | 2.14 µM | 3.66 µM | 1.42 µM | 2.67 µM | 0.34 µM | 0.296 µM | 1.21 µM | 0.321 µM |  | 0.448 µM | 0.25 µM | 0.391 µM | 1.62 µM | 0.359 µM | 0.227 µM
15 | C=C(CN1CCc2ccccc2C1)c1ccc(CCCC(=O)Nc2ccccc2N)cc1 | > 100 µM | 27.2 µM | > 100 µM | 26.4 µM | 30.3 µM | > 100 µM | 31.8 µM | 28.4 µM |  | 25.9 µM | 3.06 µM | > 100 µM | 11.1 µM | 8.45 µM | 11.9 µM | 10.5 µM | > 100 µM | 14.5 µM | 13 µM | 
16 | COc1ccc(-c2cn3ccnc3c(-c3ccc(Cl)cc3)n2)cc1 | 47 µM | > 100 µM | > 100 µM | 8.62 µM | > 100 µM | 64.8 µM | > 100 µM | 46 µM | > 100 µM | 10.5 µM |  |  | 4.68 µM | 5.56 µM | 2.56 µM | 14.5 µM | 10.6 µM | 35.2 µM | 10.4 µM | 1.71 µM
17 | OC(Cc1cccc2ccccc12)CN1CCC(c2ccccc2)CC1 (configuration not stated) | 31.7 µM | 33.7 µM | 32.7 µM | 28.3 µM | 30.5 µM | 28.2 µM |  | 30.6 µM | 27.4 µM |  |  | 62.6 µM |  |  |  |  |  |  |  | 
18 | C=C(CN1CCN(c2ccccn2)CC1)c1ccc(C(=O)Nc2ccccc2N)cc1 | > 50 µM | 3.12 µM | > 50 µM | 1.4 µM | > 50 µM | 9.22 µM | > 50 µM | > 50 µM | > 50 µM | 1.5 µM |  |  | 0.936 µM | 3.15 µM | 0.522 µM | 3.78 µM | 1.66 µM | 1.87 µM | 2.35 µM | 5.33 µM
19 | Cc1c(-c2ccc(-c3ccccc3F)cc2)nc2ccc(F)cc2c1C(=O)O | 181 µM and 492 µM | 109 µM and 198 µM | 170 µM and 405 µM | 101 µM and 128 µM | 103 µM and 429 µM | 173 µM and 866 µM | 148 µM and 909 µM | 80.6 µM and 280 µM |  | 0.617 µM and 1.67 µM | 0.0742 µM and 0.557 µM | 190 µM and 684 µM | 0.645 µM and 0.889 µM | 0.445 µM and 0.979 µM | 1.28 µM and 0.371 µM and 2.48 µM | 0.27 µM and 0.75 µM |  | 135 µM | 2.63 µM and 5.25 µM | 
20 | COC(=O)c1c(C(=O)O)c(-c2ccccc2)c(-c2ccccc2)c(-c2ccccc2)c1-c1ccccc1 | > 100 µM | > 100 µM | > 100 µM | > 100 µM | > 100 µM | > 100 µM | > 100 µM | > 100 µM |  | > 100 µM | > 100 µM | > 100 µM | > 100 µM | > 100 µM | > 100 µM | > 100 µM | > 100 µM | > 100 µM | > 100 µM | 
21 | CCOC(=O)c1sc(NC(=O)COc2ccc(/C=C3\CCc4cc(OC)ccc4C3=O)cc2)nc1C | 32.5 µM | 21.5 µM | 23 µM | 18.3 µM | > 57.3 µM | 26.5 µM | 21.6 µM | 21 µM |  | 13.8 µM |  |  | 7.13 µM | 9.43 µM | 4.05 µM | 10.2 µM | 11.4 µM | 5.61 µM | 4.66 µM | 
22 | CCNc1ccc2c(c1)C(=O)N(OS(C)(=O)=O)C2=O | > 100 µM | > 100 µM | > 100 µM | > 100 µM | > 100 µM | > 100 µM | > 100 µM | > 100 µM |  |  |  | > 100 µM |  |  |  |  |  |  |  | 

Source: PubChem BioAssay (NCI)
